Test results taken from article PMC7749516, “Safety and nonclinical and clinical pharmacokinetics of PC945, a novel inhaled triazole antifungal agent” (Pharmacology Research & Perspectives, 2020).
Like-named read-outs stand apart in the source and are kept apart here.

Columns and labels:
[1] = cited from earlier work
CYP3A4/5 = test: CYP inhibition in pooled human liver microsomes; type: in vitro ADME; conditions: without preincubation, pooled human liver microsomes

Row | IC50 (CYP3A4/5; probe midazolam, substrate midazolam) | IC50 (CYP3A4/5; probe testosterone, substrate testosterone) | SMILES | Cmax ([1]; after 15‐day, 200 mg daily oral dosing) | Mean concentration in pulmonary alveolar cells relative to lung epithelial lining fluid and plasma ([1]; 14‐day oral 400 mg twice daily, steady state) | Cmax ([1]; after 200 mg three times daily oral dosing)
1 | – | – | CCC(C)n1ncn(-c2ccc(N3CCN(c4ccc(OCC5COC(Cn6cncn6)(c6ccc(Cl)cc6Cl)O5)cc4)CC3)cc2)c1=O (centres unmarked) [itraconazole] | 1520 nM | – | –
2 | 320 nM | 81 nM | CC[C@@H]([C@H](C)O)n1ncn(-c2ccc(N3CCN(c4ccc(OC[C@@H]5CO[C@@](Cn6cncn6)(c6ccc(F)cc6F)C5)cc4)CC3)cc2)c1=O [posaconazole, reference compound] | – | over 30 fold | 830 nM
